According to patent US20260242390A1, “TOTAL SYNTHESES OF PORTIMINE A AND ANALOGUES THEREOF AS SMALL MOLECULE MODULATORS OF NMD3” (priority 2023, published 2026):
“Also recorded” adds a separate entry of the source.

Target: T1, NMD3 (Homo sapiens, UniProt Q96D46)
T1 construct: endogenous in cells
T1 sequence (Q96D46 1-503): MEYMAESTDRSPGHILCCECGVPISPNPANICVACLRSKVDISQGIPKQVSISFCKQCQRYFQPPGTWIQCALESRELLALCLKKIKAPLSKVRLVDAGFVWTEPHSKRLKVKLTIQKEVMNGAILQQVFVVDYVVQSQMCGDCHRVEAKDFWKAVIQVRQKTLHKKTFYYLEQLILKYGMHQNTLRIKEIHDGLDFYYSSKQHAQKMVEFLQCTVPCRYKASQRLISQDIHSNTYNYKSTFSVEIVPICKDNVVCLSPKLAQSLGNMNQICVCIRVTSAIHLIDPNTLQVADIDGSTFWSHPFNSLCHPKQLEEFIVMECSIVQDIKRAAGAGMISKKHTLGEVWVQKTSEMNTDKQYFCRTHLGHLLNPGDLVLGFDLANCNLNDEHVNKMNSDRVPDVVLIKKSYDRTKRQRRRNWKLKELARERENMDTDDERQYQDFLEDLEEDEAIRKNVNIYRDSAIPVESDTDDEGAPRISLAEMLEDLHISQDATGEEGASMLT
Test: Chemo-precipitation / photoaffinity labeling of NMD3
Type: binding
Conditions: for competition of PA-DA labeling of endogenous NMD3 / labeling of endogenous NMD3 by probe: Jurkat and HCC1806 cells; for competition of PA-DA labeling of endogenous NMD3: PA-DA 0.5 uM, competitor 5 uM; for labeling of endogenous NMD3 by probe: probe 0.5 uM, UV irradiated
Protocol: FIG. 4. Validation of NMD3 as target of Portimine A by Chemo-precipitation (ChP). Portimine A mouse pharmacokinetic properties and fast acting in vitro cell-based target engagement properties based on compound wash-out. (A) Pharmacokinetic studies of mouse intraperitoneal (i.p.) and oral (p.o.) administration for portimine (n=3). […] Impact of PA [0.3 or 1 mg/kg intraperitoneally] on MC38 tumor growth in WT mice (n=6). (C) Kaplan-Myer survival curve of WT MC38 tumor-bearing mice (n=6) after treatment with PA as described in (D). Mice were euthanized when tumor area exceeded 2000 mm^3. Statistical analysis was performed using ANOVA analysis followed by multiple comparisons test, * p≤0.05. Treatment condition: Jurkat (60 M per condition); PA-DA/ePA-DA concentration: 0.5 uM, PA or ePA: 5 uM; Incubate with probe with or without competitors (PA, ePA) for 30 min; UV irradiated for 20 min. (0.5 uM PA-DA add a no-UV condition); Standard pulldown & biotin-enrichment and western blot analysis (Elute condition: 2× sample buffer+500 uM biotin, boil for 20 mins); Primary antibody NMD3 (ProteinTech, 1:150), Actin (BioRad, 1:10000).
FIG. 5. […] (I, J) Confirmation of PA-DA engagement of NMD3 in Jurkat and HCC1806 cells. […] Treatment condition: Jurkat (5M per well). Portimine A concentration: 2 nM-1000 nM; In total treat cell for 12 hours.
• 1) Portimine A and its functional analogs show stereo-selective acute toxicity in cancer cells (FIG. 1). […] (B) Structure of portimine related analogs: phenyl-portimine A (Ph-PA, 36) and epi-portimine A (ePA, 38). Structure of fully functionalized portimine A-based epimeric probe pair: portimine A-diazirine-alkyne (PA-DA, 35-2) and epi-portimine A-diazirine-alkyne (ePA-DA, 35-1). (C) Cell viability analysis of portimine A and analogs. Jurkat cells were treated with increasing concentrations of portimine A and analogs for 24 hours. All presented data as mean of biological replicated experiments (n=3). […] Jurkat cells were treated with portimine A or analogs for 12 hours at 10 nM. […] Structurally related negative control ePA and PB are non-toxic in all cell types in the current concentrate range. PBMCs (25k per well), Jurkat (10k per well). […] Cell cycle analysis in Jurkat cells (FIG. 2). Jurkat cells were treated with 10 nM of indicated compounds for 24 hours, and propodium iodide was used to identify different stages of cells by flow cytometry. […] (A) PA and Ph-PA show less toxic to healthy PBMCs compared to Jurkat cells. […] (B) Immunoblot of caspase-3 in Jurkat and PBMCs with indicated conditions. […] (A) Pharmacokinetic studies of mouse intraperitoneal (i.p.) and oral (p.o.) administration for portimine (n=3). […] Impact of PA [0.3 or 1 mg/kg intraperitoneally] on MC38 tumor growth in WT mice (n=6). (C) Kaplan-Myer survival curve of WT MC38 tumor-bearing mice (n=6) after treatment with PA as described in (D). Mice were euthanized when tumor area exceeded 2000 mm^3. Statistical analysis was performed using ANOVA analysis followed by multiple comparisons test, * p≤0.05. Treatment condition: Jurkat (60 M per condition); PA-DA/ePA-DA concentration: 0.5 uM, PA or ePA: 5 uM; Incubate with probe with or without competitors (PA, ePA) for 30 min; UV irradiated for 20 min. (0.5 uM PA-DA add a no-UV condition), Standard pulldown & biotin-enrichment and western blot analysis (Elute condition: 2× sample buffer+500 uM biotin, boil for 20 mins); Primary antibody NMD3 (ProteinTech, 1:150), Actin (BioRad, 1:10000). […] Chemical proteomic profiling with PA-DA in Jurkat cells (A, B, C, G) and HCC1806 cells (D, E, F, H) show NMD3 is the primary target candidate of portimine A. Volcano plot in panels A and D show protein competition in cells treated with active photoaffinity probe PA-DA (500 nM) and DMSO or the active competitor portimine A (PA, […]), dotted lines indicate threshold of fold change <4, p-value>0.05. […] (I, J) Confirmation of PA-DA engagement of NMD3 in Jurkat and HCC1806 cells. […] Treatment condition: Jurkat (5M per well). […]

Structure (SMILES)	competition of PA-DA labeling of endogenous NMD3	labeling of endogenous NMD3 by probe	binding to NMD3 (target validation) (endogenous NMD3, Jurkat, pulldown and western blot)	nature of the interaction with NMD3 (no-UV control)	binding to recombinantly overexpressed NMD3 in cells
C=CC1=C[C@@H]2[C@@H]3O[C@]4(CC[C@H](O4)C(C)C[C@@H](O)C3=O)C[C@@H](O)C3=NCC[C@@]32CC1 (stereo partly drawn) [ePA, epi-portimine A]	not				
C#CCCC1(CCNC(=O)c2ccc(C3=C[C@@H]4[C@@H]5O[C@]6(CC[C@H](O6)C(C)C[C@@H](O)C5=O)C[C@@H](O)C5=NCC[C@@]54CC3)cc2)N=N1 (stereo partly drawn) [ePA-DA, epi-portimine A-diazirine-alkyne]		not substantially labeled			
C=CC1=C[C@@H]2[C@@H]3O[C@]4(CC[C@H](O4)C(C)C[C@@H](O)C3=O)CC(O)C3=NCC[C@@]32CC1 (stereo partly shown) [PA, portimine A]	blocked		selectively binds; also recorded: confirmed as a target	non-covalent	
C#CCCC1(CCNC(=O)c2ccc(C3=C[C@@H]4[C@@H]5O[C@]6(CC[C@H](O6)C(C)C[C@@H](O)C5=O)CC(O)C5=NCC[C@@]54CC3)cc2)N=N1 (stereo partly shown) [PA-DA, portimine A-diazirine-alkyne]		UV-dependent labeling			not observed
